Key:
[1] = test system: bronchial epithelial cells; experiment: Uptake of complexed DNA plasmid by cells (confocal microscope); format: cell-based; settings: DNA plasmid complexed with the amphiphile, compared to non-complexed DNA
Protocol: Purified Derivative 4 was used to complex with a DNA plasmid (purchased from Sigma Chemicals, 5 ng/microliter, stained in FITC; ULSIS Alexa Fluor® 488 Nucleic acid labeling kit) or rhodamine. The complexation was achieved by mixing the amphiphilic Derivative 4 (200 microliters containing […] of the compound) with […] of the DNA sample and letting it shake gently for a short period of time. The mixture is not sonicated to prevent vesicle formation in which the DNA is encapsulated. The sample was then incubated in a culture containing bronchial epithelial cells.

[2] = test system: bronchial epithelial cells; experiment: Uptake of vesicle-encapsulated 14C-methylated albumin by cells (radioactivity); format: cell-based; settings: 14C-methylated albumin encapsulated in vesicles, compared with non-encapsulated albumin
Protocol: Derivative 10 was made into vesicles according to Example 41. […] The same method was used to encapsulate ^14C-methylated albumin (purchased from Sigma Chemicals) by adding 0.2 mg of the tagged albumin. The vesicles were purified by filtration and the presence of radioactivity in the purified sample indicated encapsulation.

Vesicle size by TEM = format: physicochemical; parameters: unit not given here; settings: bilayer vesicles
Protocol: Two main methods were used to prepare the vesicles: In method (1), 100-200 μl of the amphiphilic derivative dissolved in methanol was injected into 2-4 ml of an aqueous solution which contained the compound to be encapsulated. The mixture was sonicated in a bath sonicator (Branson 2510) for a short (1,2,5,10 min) or long (60 min) period, depending on the desired vesicle size (dozen or hundred nanometer) and uniformity. In method (2), the amphiphilic derivative dissolved in methanol (250-1000 μl) was added to a 50-ml round-bottom flask, the solvent was removed under reduced pressure by a rotary evaporator and a thin oily film was formed on the flask bottom. An aqueous solution containing the compound desired to encapsulate (1-4 ml) was added to the flask and the mixture was sonicated in a bath sonicator for 1-5 min at 60° C.
TEM (transmission electron microscopy) experiments were carried out using negative staining technique, employing saturated uranyl acetate solution (after centrifuge). The grid was immersed in the vesicle solution for 1.5 minutes and then was stained in the uranyl acetate solution for 1.5 min. The grid (300 mesh copper Formvar/carbon) was then dried at room temperature on filter paper. […]
Derivative 10 was made into vesicles according to Example 41. […] The vesicles were purified by filtration and the presence of radioactivity in the purified sample indicated encapsulation.

Row | Compound | uptake of DNA by the cells [1] | uptake of the albumin by the cells [2] | vesicle size (Vesicle size by TEM)
1 | CCCCCC(OC(=O)CN(CCCN)CCCCN)C(O)CCCCC(=O)OC (stereo not drawn) [Derivative 4] | significantly greater uptake of DNA |  | 
2 | CCCCCCCCCCCC[N+](C)(C)CC(=O)OC(CCCCC)C(O)C/C=C/CC(=O)NCCNC(=O)C/C=C/CC(O)C(CCCCC)OC(=O)C[N+](C)(C)CCCCCCCCCCCC (stereo not drawn) [Derivative 10] |  | significantly greater uptake of the albumin | 350

— patent US7939562B2, “Amphiphilic derivatives for the production of vesicles, micelles and complexants, and precursors thereof” (Ben-Gurion University of The Negev Research and Development …, priority 2001, dated 2011)
